Experimental data taken from publication PMC7577125 (Antimicrobial Agents and Chemotherapy, 2020).
“And” between values parts separate entries of the source, which are not always exact repeats. Equal entries are not always repeated. Where two headings read alike, the source gives them in different places.

Tests used:
HBV Cp I105L = assay: microbe, parasite or virus in culture; assay type: cell-based, Hepatitis B virus
HBV [1] = assay: HBV infection of HepG2-NTCP cells; assay type: cell-based; settings: Hepatitis B virus
HBV Cp Y118F = assay: microbe, parasite or virus in culture; assay type: cell-based, Hepatitis B virus
CYP2D6 = target: T1, CYP2D6 (Homo sapiens, UniProt P10635); assay: CYP inhibition in human liver microsomes, 2D6; assay type: in vitro ADME; settings: 0.1–100 μM
T1 construct: in human liver microsomes; from tissue; host or cells: human liver microsomes
T1 sequence (P10635 whole entry): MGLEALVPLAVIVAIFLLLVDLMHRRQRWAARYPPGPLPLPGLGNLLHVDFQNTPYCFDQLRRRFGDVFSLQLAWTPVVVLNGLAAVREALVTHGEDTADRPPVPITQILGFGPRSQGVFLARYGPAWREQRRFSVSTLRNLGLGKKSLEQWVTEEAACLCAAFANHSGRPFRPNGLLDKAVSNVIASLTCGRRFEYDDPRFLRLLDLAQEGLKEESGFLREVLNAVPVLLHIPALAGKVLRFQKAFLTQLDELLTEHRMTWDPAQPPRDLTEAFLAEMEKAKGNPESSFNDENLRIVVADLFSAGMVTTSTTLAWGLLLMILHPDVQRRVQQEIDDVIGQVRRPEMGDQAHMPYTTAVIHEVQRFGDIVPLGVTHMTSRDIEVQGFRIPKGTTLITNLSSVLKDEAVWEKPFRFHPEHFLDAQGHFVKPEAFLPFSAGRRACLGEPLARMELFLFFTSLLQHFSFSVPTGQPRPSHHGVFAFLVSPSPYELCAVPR

in vitro [2] = settings: rat, plasma
HBV Cp P25A = assay: microbe, parasite or virus in culture; assay type: cell-based, Hepatitis B virus
HBV cccDNA [3] = assay: cccDNA formation assay in infected HepG2-NTCP cells (Southern blot); assay type: cell-based; settings: Hepatitis B virus, 96 h, 4 days, read-out: cccDNA % of Control
HBV [4] = assay: Dose response of ETV and ABI-H0731 alone and in combination in induced HepAD38 cells; assay type: cell-based, Hepatitis B virus
Protocol: Viral replication was evaluated by quantifying the levels of total HBV DNA in the cells by qPCR. […] In both cases, the data are plotted as a function of each drug’s concentration relative to its VR EC50.

[5] = test system: HBV genotypes A, B, C, and D; assay: microbe, parasite or virus in culture; assay type: cell-based; settings: Hepatitis B virus, read-out: VR EC50s
[6] = test system: NrtI^R HBV (rtL180M/M204V); assay: microbe, parasite or virus in culture; assay type: cell-based, Hepatitis B virus
HBV cell culture models = settings: concentrations of up to 10 μM
in vitro [7] = settings: mouse, plasma
HBV Cp I105T = assay: microbe, parasite or virus in culture; assay type: cell-based, Hepatitis B virus
in vitro [8] = settings: for half-life at 1 μM: hepatocytes; for half-life at 0.5 μM: microsomes
Protocol: In vitro intrinsic clearance (CLint) was determined as follows. […] The calculated CLint was determined from the relationship CLint = k × (volume of incubation in ml/mg microsomal protein) × (mg protein in liver/g liver weight) × (g liver weight/kg body weight). The values for liver weights, body weights, as well as hepatic blood flows (QH) across species were obtained from data reported previously by Davies and Morris ([28]). Values for liver microsome protein/liver weight for mouse, rat, dog, and monkey were […] ([27]), and that for human was 33 mg/g. The calculation used for the prediction of hepatic clearance (CLpred) is CLpred = (QH × CLint)/(QH + CLint).

HBV [9] = test system: HBV; design: method as in PMID 31711752; settings: HBeAg-negative patient, day 28 of monotherapy; cited from earlier work
HBV genotype A = assay: microbe, parasite or virus in culture; assay type: cell-based; settings: Hepatitis B virus, read-out: Mean antiviral EC50
CYP2C8 = CYP2C8 (Homo sapiens, UniProt P10632); assay: biochemical
Chain of CYP2C8 (P10632 whole entry): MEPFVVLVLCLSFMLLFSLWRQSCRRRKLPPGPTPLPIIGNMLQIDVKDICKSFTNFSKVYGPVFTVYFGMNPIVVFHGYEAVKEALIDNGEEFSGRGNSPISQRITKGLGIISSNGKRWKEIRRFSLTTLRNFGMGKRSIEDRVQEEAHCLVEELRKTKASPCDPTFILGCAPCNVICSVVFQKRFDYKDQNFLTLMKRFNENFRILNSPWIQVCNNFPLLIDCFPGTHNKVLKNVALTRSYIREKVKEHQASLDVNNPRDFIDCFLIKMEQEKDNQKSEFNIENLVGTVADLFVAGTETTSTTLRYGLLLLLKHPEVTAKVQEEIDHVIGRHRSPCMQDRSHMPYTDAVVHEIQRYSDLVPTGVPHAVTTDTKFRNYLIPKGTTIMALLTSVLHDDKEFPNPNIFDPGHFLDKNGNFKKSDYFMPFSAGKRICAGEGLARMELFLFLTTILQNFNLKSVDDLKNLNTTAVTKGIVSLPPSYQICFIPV

[10] = test system: HBV (genotype D, subtype ayw); assay: HBV replication assay in HepAD38 cells; assay type: cell-based, Hepatitis B virus; settings: Hepatitis B virus
HBV cccDNA [11] = assay: cccDNA formation assay in infected PHH cells (Southern blot); assay type: cell-based; settings: Hepatitis B virus, 96 h, 4 days, read-out: cccDNA % of Control
CYP2C19 = target: T2, CYP2C19 (Homo sapiens, UniProt P33261); assay: CYP inhibition in human liver microsomes, 2C19; assay type: in vitro ADME; settings: 0.1–100 μM
T2 construct: in human liver microsomes; from tissue; host or cells: human liver microsomes
T2 sequence (P33261 whole entry): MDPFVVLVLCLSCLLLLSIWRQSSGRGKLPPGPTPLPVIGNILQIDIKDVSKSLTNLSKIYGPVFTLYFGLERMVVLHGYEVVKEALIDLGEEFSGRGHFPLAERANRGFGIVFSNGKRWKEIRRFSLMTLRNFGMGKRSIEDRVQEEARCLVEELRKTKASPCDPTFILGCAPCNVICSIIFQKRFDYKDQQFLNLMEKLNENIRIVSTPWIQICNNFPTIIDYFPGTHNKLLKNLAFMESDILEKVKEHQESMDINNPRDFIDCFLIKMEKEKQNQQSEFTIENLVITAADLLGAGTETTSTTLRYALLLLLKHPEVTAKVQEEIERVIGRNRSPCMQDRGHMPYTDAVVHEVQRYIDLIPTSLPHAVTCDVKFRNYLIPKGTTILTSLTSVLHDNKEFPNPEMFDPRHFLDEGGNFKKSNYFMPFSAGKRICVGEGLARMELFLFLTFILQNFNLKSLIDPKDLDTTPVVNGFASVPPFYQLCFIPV

in vitro [12] = settings: human, plasma
[13] = Hepatitis B virus, Huh-7, read-out: Mean EC50

## O=C(NCc1cnc(C(F)(F)F)s1)c1ccc2c(c1)NC(=O)c1ccccc1S2(=O)=O [ABI-H0731]
HBV Cp I105L; [13]
  EC50: 41 ± 6 nM
HBV Cp I105L; I105L vs wild type
  Fold shift: 0.3 fold
HBV [1]; read-out: Mean EC50, HBeAg
  EC50: 4.95 µM
HBV [1]; read-out: Mean EC50, HBsAg
  EC50: 7.3 µM
HBV [1]; read-out: Mean EC50, pgRNA
  EC50: 2.68 µM
HBV [1]; total intracellular viral DNA, read-out: Mean EC50, viral DNA
  EC50: 0.307 ± 0.041 µM
HBV Cp Y118F; [13]
  EC50: 2070 nM
HBV Cp Y118F; Y118F vs wild type
  Fold shift: 14 fold
CYP2D6
  IC50: 29.6 µM
In vitro [2]
  fraction unbound at 6 h: 0.02 to 0.052
HBV Cp P25A; [13]
  EC50: 169 ± 41 nM
HBV Cp P25A; P25A vs wild type
  Fold shift: 1.2 fold
HBV cccDNA [3]; 0.04 μM
  activity at 0.04 µM: 89%
HBV cccDNA [3]; 0.12 μM
  activity at 0.12 µM: 95%
HBV cccDNA [3]; 0.37 μM
  activity at […]: 98%
HBV cccDNA [3]; 1.11 μM
  activity at 1.11 µM: 94%
HBV cccDNA [3]; 3.33 μM
  activity at 3.33 µM: 86%
HBV cccDNA [3]; 10.0 μM
  activity at 10 µM: 30%
HBV [4]; 60× VR EC50 (10 μM ABI-H0731), control 2.2 × 10^6
  HBV DNA levels: 2.1 × 10^3 copies/μl
HBV [4]; 60× VR EC50 (10 μM)
  inhibition of HBV DNA replication: ~3 logs
HBV [4]; Hepatitis B virus, HePAD38, 96 h, read-out: inhibition of HBV replication
  inhibition at 1.7 µM: 98%
[5]
  EC50: 86 to 142 nM
[6]; HepG2-NrtI^R versus HepAD38 (wild type)
  Fold shift: 1.2 fold
[6]; Hepatitis B virus, 96 h, read-out: Mean EC50
  EC50: 262 ± 97 nM
HBV cell culture models
  cytotoxicity: No cytotoxicity was observed
In vitro [7]
  fraction unbound at 6 h: 0.03 to 0.034
HBV Cp I105T; [13]
  EC50: 324 ± 20 nM
HBV Cp I105T; I105T vs wild type
  Fold shift: 2.2 fold
In vitro [8]; cynomolgus monkey, 0.5 μM
  % LBF: 15%
  CLpred: 4.7 mL/min/kg
In vitro [8]; cynomolgus monkey, 1 μM
  % LBF: 15%
  CLpred: 4.7 mL/min/kg
In vitro [8]; dog, 0.5 μM
  % LBF: 65%
  CLpred: 20 mL/min/kg
In vitro [8]; dog, 1 μM
  % LBF: 81%
  CLpred: 25 mL/min/kg
In vitro [8]; dog
  half-life at 1 μM: 40 min
  half-life at 0.5 μM: 37.3 min
In vitro [8]; human, 0.5 μM
  % LBF: 13%
  CLpred: 2.8 mL/min/kg
In vitro [8]; human, 1 μM
  % LBF: 11%
  CLpred: 2.3 mL/min/kg
In vitro [8]; human
  half-life at 1 μM: 695 min
  half-life at 0.5 μM: 376 min
In vitro [8]; monkey
  half-life at 1 μM: 475 min
  half-life at 0.5 μM: 359 min
In vitro [8]; mouse, 0.5 μM
  % LBF: 21%
  CLpred: 19 mL/min/kg
In vitro [8]; mouse
  half-life at 0.5 μM: 140 min
In vitro [8]; rat, 0.5 μM
  % LBF: 12%
  CLpred: 7.9 mL/min/kg
In vitro [8]; rat
  half-life at 0.5 μM: 277 min
HBV [9]
  decline in viral load in a patient harboring T109M at baseline: 1.0 log and 1 log
HBV genotype A
  EC50: 113 ± 22 nM
CYP2C8
  IC50: 27.2 µM
[10]; HePAD38, HepAD38, concomitantly determined with HepG2-NrtI^R, read-out: Mean EC50
  EC50: 221 ± 19 nM
[10]; HePAD38, HepAD38, total intracellular viral DNA, read-out: Mean EC50, viral DNA
  EC50: 173 ± 40 nM
HBV cccDNA [11]; 0.37 μM
  activity at […]: 90%
HBV cccDNA [11]; 1.11 μM
  activity at 1.11 µM: 80%
HBV cccDNA [11]; 3.33 μM
  activity at 3.33 µM: 56%
HBV cccDNA [11]; 10.0 μM
  activity at 10 µM: 15%
CYP2C19
  IC50: 42.8 µM
In vitro [12]
  fraction unbound at 6 h, 3 μM: 0.031
  fraction unbound at 6 h, 10 μM: 0.034
  fraction unbound at 6 h, 30 μM: 0.024
